From paper PMC9917560, “Design, Synthesis and Antimicrobial Evaluation of New N-(1-Hydroxy-1,3-dihydrobenzo[c][1,2]oxaborol-6-yl)(hetero)aryl-2-carboxamides as Potential Inhibitors of Mycobacterial Leucyl-tRNA Synthetase” (International Journal of Molecular Sciences, 2023)
Converted amounts (≈) assume the structure as drawn. Read-outs that look alike come from different tables or passages of the source.

What was measured:
Assay type in all cases: cell-based
[1] = tested on: Candida albicans CCM 8320 (ATCC 24433); test: Antifungal microdilution broth (EUCAST); settings: for MIC: read-out: MIC (visual detection)
[2] = tested on: Candida krusei CCM 8271 (ATCC 6258); test: Antifungal microdilution broth (EUCAST); settings: Pichia kudriavzevii; for MIC: read-out: MIC (visual detection)
[3] = tested on: Candida parapsilosis CCM 8260 (ATCC 22019); test: Antifungal microdilution broth (EUCAST); settings: Lodderomyces parapsilosis; for MIC: read-out: MIC (visual detection)
[4] = tested on: Candida tropicalis CCM 8264 (ATCC 750); test: Antifungal microdilution broth (EUCAST); settings: for MIC: read-out: MIC (visual detection)
[5] = tested on: Aspergillus fumigatus ATCC 204305; test: Antifungal microdilution broth (EUCAST); settings: for MIC: read-out: MIC (visual detection)
[6] = tested on: Aspergillus flavus CCM 8363; test: Antifungal microdilution broth (EUCAST); settings: for MIC: read-out: MIC (visual detection)
[7] = tested on: Lichtheimia corymbifera CCM 8077; test: Antifungal microdilution broth (EUCAST); settings: for MIC: read-out: MIC (visual detection)
[8] = tested on: Trichophyton interdigitale CCM 8377 (ATCC 9533); test: Antifungal microdilution broth (EUCAST); settings: for MIC: read-out: MIC (visual detection)
[9] = tested on: Staphylococcus aureus subsp. aureus CCM 4223 (ATCC 29213); test: Antibacterial microdilution broth (EUCAST)
[10] = tested on: methicillin-resistant Staphylococcus aureus subsp. aureus (MRSA) CCM 4750 (ATCC 43300); test: microbe, parasite or virus in culture; settings: 24 h
[11] = tested on: Staphylococcus epidermidis CCM 4418 (ATCC 12228); test: Antibacterial microdilution broth (EUCAST)
[12] = tested on: Enterococcus faecalis CCM 4224 (ATCC 29212); test: Antibacterial microdilution broth (EUCAST); settings: 24 h
[13] = tested on: Escherichia coli CCM 3954 (ATCC 25922); test: Antibacterial microdilution broth (EUCAST); settings: Escherichia coli
[14] = tested on: Klebsiella pneumoniae CCM 4415 (ATCC 10031); test: Antibacterial microdilution broth (EUCAST); settings: Klebsiella pneumoniae
[15] = tested on: Acinetobacter baumannii DSM 30007 (ATCC 19606); test: Antibacterial microdilution broth (EUCAST); settings: 24 h
[16] = tested on: Pseudomonas aeruginosa CCM 3955 (ATCC 27853); test: Antibacterial microdilution broth (EUCAST)
[17] = read-out: MIC (spectrophotometric detection, 530 nm)
[18] = read-out: MIC (visual detection)
[19] = 24 h, read-out: IC50 (spectrophotometric detection, 530 nm)

SMILES: C[C@@H]1[C@H](O)[C@@H](C)/C=C/C=C/C=C/C=C/C=C/C=C/C=C/[C@H](O[C@@H]2O[C@H](C)[C@@H](O)[C@H](N)[C@@H]2O)C[C@@H]2O[C@](O)(C[C@@H](O)C[C@@H](O)[C@H](O)CC[C@@H](O)C[C@@H](O)CC(=O)O[C@H]1C)C[C@H](O)[C@H]2C(=O)O [amphotericin B, reference compound]
- IC90 ([1]; Candida albicans CCM 8320, 24 h, read-out: IC90 (spectrophotometric detection, 530 nm)): 1080 nM
- MIC ([1]; Candida albicans CCM 8320, 24 h): 1.08 µM (≈ 1 µg/mL)
- IC90 ([2]; Candida krusei CCM 8271, 24 h, read-out: IC90 (spectrophotometric detection, 530 nm)): 1080 nM
- MIC ([2]; Candida krusei CCM 8271, 24 h): 1.08 µM (≈ 1 µg/mL)
- IC90 ([3]; Candida parapsilosis CCM 8260, 24 h, read-out: IC90 (spectrophotometric detection, 530 nm)): 541 nM
- MIC ([3]; Candida parapsilosis CCM 8260, 24 h): 0.541 µM (≈ 0.5 µg/mL)
- IC90 ([4]; ATCC 750 / CCM 8264 / CCM 8321, CCM 8321, 24 h, read-out: IC90 (spectrophotometric detection, 530 nm)): 1080 nM
- MIC ([4]; ATCC 750 / CCM 8264 / CCM 8321, CCM 8321, 24 h): 1.08 µM (≈ 1 µg/mL)
- IC90 ([5]; ATCC204305, Aspergillus fumigatus ATCC 204305, 48 h, read-out: IC90 (spectrophotometric detection, 530 nm)): 4.33 µM
- MIC ([5]; ATCC204305, Aspergillus fumigatus ATCC 204305, 48 h): 4.33 µM (≈ 4 µg/mL)
- IC90 ([6]; CCM8363, Aspergillus flavus CCM 8363, 48 h, read-out: IC90 (spectrophotometric detection, 530 nm)): 4.33 µM
- MIC ([6]; CCM8363, Aspergillus flavus CCM 8363, 48 h): 4.33 µM (≈ 4 µg/mL)
- IC90 ([7]; CCM8077, Lichtheimia corymbifera CCM 8077, 48 h, read-out: IC90 (spectrophotometric detection, 530 nm)): 1080 nM
- MIC ([7]; CCM8077, Lichtheimia corymbifera CCM 8077, 48 h): 1.08 µM (≈ 1 µg/mL)
- IC90 ([8]; Trichophyton interdigitale CCM 8377, read-out: IC90 (spectrophotometric detection, 530 nm)): 1080 nM
- MIC ([8]; Trichophyton interdigitale CCM 8377): 1.08 µM (≈ 1 µg/mL)

SMILES: CNC(C)C1CCC(N)C(OC2C(N)CC(N)C(OC3OCC(C)(O)C(NC)C3O)C2O)O1 (stereo not drawn) [gentamicin, reference compound]
- MIC ([9]; S. aureus CCM 4223, 95% growth inhibition, 24 h, read-out: MIC (spectrophotometric detection, 530 nm)): 2.09 µM (≈ 1 µg/mL)
- MIC ([9]; S. aureus CCM 4223, 24 h, read-out: MIC (visual detection)): 1.05 µM (≈ 0.5 µg/mL)
- MIC [10, 17]: > 16.8 µM
- MIC [10, 18]: > 16.8 µM
- MIC ([11]; S. epidermidis CCM 4418, 95% growth inhibition, 24 h, read-out: MIC (spectrophotometric detection, 530 nm)): 0.131 µM (≈ 0.0626 µg/mL)
- MIC ([11]; S. epidermidis CCM 4418, 24 h, read-out: MIC (visual detection)): 0.131 µM (≈ 0.0626 µg/mL)
- MIC [12, 17]: > 16.8 µM
- MIC [12, 18]: > 16.8 µM
- MIC ([13]; E. coli CCM 3954, 95% growth inhibition, 24 h, read-out: MIC (spectrophotometric detection, 530 nm)): 2.09 µM (≈ 1 µg/mL)
- MIC ([13]; E. coli CCM 3954, 24 h, read-out: MIC (visual detection)): > 2.09 µM
- MIC ([14]; K. pneumoniae CCM 4415, 95% growth inhibition, 24 h, read-out: MIC (spectrophotometric detection, 530 nm)): 1.05 µM (≈ 0.5 µg/mL)
- MIC ([14]; K. pneumoniae CCM 4415, 24 h, read-out: MIC (visual detection)): 1.05 µM (≈ 0.5 µg/mL)
- MIC [15, 17]: 16.8 µM (≈ 8 µg/mL)
- MIC [15, 18]: 16.8 µM (≈ 8 µg/mL)
- MIC ([16]; P. aeruginosa CCM 3955, 95% growth inhibition, 24 h, read-out: MIC (spectrophotometric detection, 530 nm)): 1.05 µM (≈ 0.5 µg/mL)
- MIC ([16]; P. aeruginosa CCM 3955, 24 h, read-out: MIC (visual detection)): 1.05 µM (≈ 0.5 µg/mL)

SMILES: C[C@@H](c1ncncc1F)[C@](O)(Cn1cncn1)c1ccc(F)cc1F [voriconazole, reference compound]
- IC50 ([1]; Candida albicans, 24 h, read-out: IC50 (spectrophotometric detection, 530 nm)): 86 nM
- MIC ([1]; Candida albicans, 24 h): > 45.8 µM
- IC50 [2, 19]: 716 nM
- MIC ([2]; 24 h): > 45.8 µM
- IC50 [3, 19]: 86 nM
- MIC ([3]; 24 h): > 45.8 µM
- IC50 ([4]; ATCC 750 / CCM 8264 / CCM 8321, 24 h, read-out: IC50 (spectrophotometric detection, 530 nm)): 179 nM
- MIC ([4]; ATCC 750 / CCM 8264 / CCM 8321, 24 h): > 45.8 µM
- IC50 ([5]; Aspergillus fumigatus, ATCC204305, 48 h, read-out: IC50 (spectrophotometric detection, 530 nm)): 716 nM
- MIC ([5]; Aspergillus fumigatus, ATCC204305, 48 h): 2.86 µM (≈ 1 µg/mL)
- IC50 ([6]; Aspergillus flavus, CCM8363, 48 h, read-out: IC50 (spectrophotometric detection, 530 nm)): 5.73 µM
- MIC ([6]; Aspergillus flavus, CCM8363, 48 h): > 45.8 µM
- IC50 ([7]; Lichtheimia corymbifera, CCM8077, 48 h, read-out: IC50 (spectrophotometric detection, 530 nm)): > 45.8 µM
- MIC ([7]; Lichtheimia corymbifera, CCM8077, 48 h): > 45.8 µM
- IC50 ([8]; Trichophyton interdigitale, read-out: IC50 (spectrophotometric detection, 530 nm)): 2860 nM
- MIC ([8]; Trichophyton interdigitale): > 45.8 µM
